The values that follow come from US11098040B2, “Compounds and methods of use” (Ferro Therapeutics, Inc., priority 2018, dated 2021).

The structures appear in SMILES notation.

The first experiment deals with SJSA-1. The experiment can be described thus: Cell viability assay (CellTiter Glo), osteosarcoma SJSA-1. In kind it is cell-based. The note with it: Homo sapiens, 96 hours. The method, then: (§1) Cell viability assay was performed to assess the potency of the compounds in human cancer cell lines KP4 (pancreatic ductal adenocarcinoma), MiaPaCa-2 (pancreatic carcinoma), AsPC-1 (pancreatic adenocarcinoma, ascites), 143B (osteosarcoma), and SJSA-1 (osteosarcoma). Selected compounds were also assayed in a human breast epithelial cell line MCF-10A, a nontumorigenic cell line as a control to assess differential activity. Cells at a density of 500-5,000 cells/well were seeded in 96-well plates and incubated at 37° C. overnight. A series of 9 different concentrations of compound stocks (500×) were created by 3-fold serial dilution in DMSO. These compounds were further diluted in culture media and then added to cells so that the final DMSO concentration was equal to 0.25% or less. After 96 hours of incubation, 50 μL of CellTiter Glo reagent (Promega) was added to each well and luminescence was measured after 10 minutes using EnVision (PerkinElmer). Compounds titrated from top concentration of up to 30 μM. The select compounds were tested initially from 30 μM as the top concentration in duplicates (range of 4.6 nM-30 μM). […] Luminescence from cells treated with DMSO alone was set as Max and % of inhibition was calculated as follows: Inhibition %=(Max-Sample value)/Max*100. Data was analyzed using XL-fit software (ID Business Solutions Ltd.). IC50, relative IC50, or % of top inhibition was calculated.
(§2) The results of the assay in sarcoma cell lines are given in Table 21a for HT-1080 luc2 (fibrosarcoma expressing a luciferase gene), Table 21b for 143B (osteosarcoma), and Table 21c for SJSA-1 (osteosarcoma).
A general note: Cellular ATP, detected with luciferase, serves as a proxy for viable cell number.
As to `CNS(=O)(=O)c1ccc([C@H]2c3[nH]c4ccccc4c3C[C@H](C(=O)OC)N2C(=O)CCl)cc1` [Example 22], the IC50 (commonly the midpoint of a concentration-inhibition curve) was 202 nM.
The same measure, in the same setting: under `COC(=O)[C@H]1Cc2c([nH]c3ccccc23)[C@H](c2ccc(S(=O)(=O)N(C)C)cc2)N1C(=O)CCl` [Example 23] stands 90 nM.

In another experiment the test system is MCF-10A. The experiment can be described thus: Cell viability assay (CellTiter Glo), non-tumorigenic breast epithelial cell line MCF-10A. In kind it is cell-based. The note with it: Homo sapiens, 96 hours. The gist of the method: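 MCF-10A cells (500-5,000/well) treated 96 h at 37° C with 9-point 3-fold dilutions from up to 30 μM, ≤0.25% DMSO, in duplicate. Viability by CellTiter Glo luminescence; % inhibition versus DMSO-only wells gave IC50, relative IC50 or % top inhibition. Paclitaxel positive control.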
With `CNS(=O)(=O)c1ccc([C@H]2c3[nH]c4ccccc4c3C[C@H](C(=O)OC)N2C(=O)CCl)cc1` [Example 22], the IC50 stood at 3300 nM.
For the compound `COC(=O)[C@H]1Cc2c([nH]c3ccccc23)[C@H](c2ccc(S(=O)(=O)N(C)C)cc2)N1C(=O)CCl` [Example 23], the midpoint of inhibition, the IC50, lay at 2390 nM.

The next experiment relates to 143B. Briefly: Cell viability assay (CellTiter Glo), osteosarcoma 143B. In kind it is cell-based. The note with it: Homo sapiens, 96 h, osteosarcoma, 96 hours, CellTiter Glo, read-out: IC50 143B. As to the method:
as §1, §2
`CNS(=O)(=O)c1ccc([C@H]2c3[nH]c4ccccc4c3C[C@H](C(=O)OC)N2C(=O)CCl)cc1` [Example 22]: the IC50 was determined as 74 nM.
On the same count and under the same terms, the same measure for `COC(=O)[C@H]1Cc2c([nH]c3ccccc23)[C@H](c2ccc(S(=O)(=O)N(C)C)cc2)N1C(=O)CCl` [Example 23]: 34 nM.

The subject of a further experiment is MiaPaCa-2. The experiment can be described thus: Cell viability assay (CellTiter Glo), pancreatic carcinoma MiaPaCa-2. In kind it is cell-based. The following applies: Homo sapiens, MIA PaCa-2; pancreatic carcinoma, 96 hours, CellTiter Glo; read-out: IC50 MiaPaCa-2. The gist of the method:
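MiaPaCa-2 and AsPC-1 cells were seeded overnight at 37 °C and exposed for 96 h to 9-point, 3-fold dilutions from up to 30 μM (final DMSO ≤0.25%). CellTiter Glo luminescence was read, and inhibition was calculated relative to DMSO-only cells. IC50, relative IC50 or % top inhibition was derived.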
Consider `CNS(=O)(=O)c1ccc([C@H]2c3[nH]c4ccccc4c3C[C@H](C(=O)OC)N2C(=O)CCl)cc1` [Example 22], for which the IC50 came out at 39 nM.
On to `COC(=O)[C@H]1Cc2c([nH]c3ccccc23)[C@H](c2ccc(S(=O)(=O)N(C)C)cc2)N1C(=O)CCl` [Example 23], for which the half-maximal inhibitory concentration (IC50) is 36 nM.
